According to patent US9017689B2, “Peptides for vaccine against birch allergy” (Circassia Limited, priority 2010, dated 2015):
Like-named read-outs stand apart in the source and are kept apart here. Ends that are not written are not given here.

Assay: Solubility screening in trehalose matrices pH 2.65 to 7.03;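 note: test items are peptides, each checked for solubility in every trehalose matrix, the matrices made up in distilled deionised water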
Type: physicochemical
Conditions: for solubility: read-out: Solubility [mg per ml]
[1] = 2 mM HCl and 260 mM trehalose dihydrate, pH 2.65
[2] = 10 mM potassium dihydrogen phosphate and 260 mM trehalose dihydrate, pH 6.03
[3] = 10 mM potassium dihydrogen phosphate and 260 mM trehalose dihydrate, pH 7.03
[4] = 10 mM sodium citrate and 260 mM trehalose dihydrate, pH 3.01
[5] = 10 mM sodium citrate and 260 mM trehalose dihydrate, pH 3.99
[6] = 10 mM sodium citrate and 260 mM trehalose dihydrate, pH 5.02
[7] = 10 mM sodium citrate and 260 mM trehalose dihydrate, pH 6.01
[8] = aqueous buffer, 10 mM potassium dihydrogen phosphate and 260 mM trehalose dihydrate, pH 6.03
[9] = aqueous buffer, 10 mM potassium dihydrogen phosphate and 260 mM trehalose dihydrate, pH 7.03
[10] = aqueous buffer, 10 mM sodium citrate and 260 mM trehalose dihydrate, pH 3.01
[11] = aqueous buffer, 10 mM sodium citrate and 260 mM trehalose dihydrate, pH 3.99
[12] = aqueous buffer, 10 mM sodium citrate and 260 mM trehalose dihydrate, pH 5.02
[13] = aqueous buffer, 10 mM sodium citrate and 260 mM trehalose dihydrate, pH 6.01
[14] = water, 2 mM HCl and 260 mM trehalose dihydrate, pH 2.65

| Sequence | Comments (solubility on preparation) [1] | Solubility [mg per ml 'as is'] [1] | Solubility [μmol per ml] [1] | Solubility after 24 Hours [1] | Solubility [mg per ml 'as is'] [2] | Solubility [μmol per ml] [2] | Comments (solubility on preparation) [3] | Solubility [mg per ml 'as is'] [3] | Solubility [μmol per ml] [3] | Solubility after 24 Hours [3] | Comments (solubility on preparation) [4] | Solubility [mg per ml 'as is'] [4] | Solubility [μmol per ml] [4] | Solubility after 24 Hours [4] | Solubility [mg per ml 'as is'] [5] | Solubility [μmol per ml] [5] | Solubility [mg per ml 'as is'] [6] | Solubility [μmol per ml] [6] | Comments (solubility on preparation) [7] | Solubility [mg per ml 'as is'] [7] | further results |
| --- | --- | --- | --- | --- | --- | --- | --- | --- | --- | --- | --- | --- | --- | --- | --- | --- | --- | --- | --- | --- | --- |
| FNYETETTSVIPAARK [BIR1I] | Completely dissolved | 19.50 mg per ml ‘as is’ | 9.222 μmol per ml | Completely dissolved | 22.14 mg per ml ‘as is’ | 10.470 μmol per ml | Completely dissolved | 20.78 mg per ml ‘as is’ | 9.827 μmol per ml | Completely dissolved | Completely dissolved | 1.65 mg per ml ‘as is’ | 0.779 μmol per ml | Completely dissolved | 2.28 mg per ml ‘as is’ | 1.078 μmol per ml | 2.30 mg per ml ‘as is’ | 1.089 μmol per ml | Completely dissolved | 7.45 mg per ml ‘as is’ | Commute (solubility on preparation) [2]: Completely dissolved; Solubility after 24 Hours [2]: Completely dissolved; Comments (solubility on preparation) [5]: Completely dissolved; Solubility after 24 Hours [5]: Completely dissolved; Comments (solubility on preparation) [6]: Completely dissolved; Solubility after 24 Hours [6]: Completely dissolved; Solubility [μmol per ml] [7]: 3.522 μmol per ml; Solubility after 24 Hours [7]: Completely dissolved; solubility [8]: ≥ 19100 µg/mL; solubility [9]: ≥ 18000 µg/mL; solubility [10]: ≥ 1420 µg/mL; solubility [11]: ≥ 1970 µg/mL; solubility [12]: ≥ 1990 µg/mL; solubility [13]: ≥ 6430 µg/mL; solubility [14]: ≥ 16800 µg/mL |
| AKYMVIQGEPGRVIRGK [Bir12B] | Completely dissolved | 10.22 mg per ml ‘as is’ | 4.490 μmol per ml | Completely dissolved | 23.84 mg per ml ‘as is’ | 10.474 μmol per ml | Completely dissolved | 20.62 mg per ml ‘as is’ | 9.060 μmol per ml | Completely dissolved | Completely dissolved | 5.47 mg per ml ‘as is’ | 2.403 μmol per ml | Completely dissolved | 10.32 mg per ml ‘as is’ | 4.534 μmol per ml | 5.84 mg per ml ‘as is’ | 2.564 μmol per ml | Completely dissolved. | 2.28 mg per ml ‘as is’ | Commute (solubility on preparation) [2]: Completely dissolved; Solubility after 24 Hours [2]: Completely dissolved; Comments (solubility on preparation) [5]: Completely dissolved; Solubility after 24 Hours [5]: Completely dissolved; Comments (solubility on preparation) [6]: Completely dissolved; Solubility after 24 Hours [6]: Completely dissolved; Solubility [μmol per ml] [7]: 1.002 μmol per ml; Solubility after 24 Hours [7]: Completely dissolved.; solubility [8]: ≥ 19900 µg/mL; solubility [9]: ≥ 17200 µg/mL; solubility [10]: ≥ 4570 µg/mL; solubility [11]: ≥ 8630 µg/mL; solubility [12]: ≥ 4880 µg/mL; solubility [13]: ≥ 1910 µg/mL; solubility [14]: ≥ 8540 µg/mL |
| AERERIFKRFDANGEGK [Bir16A] | Completely dissolved | 24.86 mg per ml ‘as is’ | 10.652 μmol per ml | Completely dissolved | 21.54 mg per ml ‘as is’ | 9.229 μmol per ml | Completely dissolved | 21.98 mg per ml ‘as is’ | 9.418 μmol per ml | Completely dissolved | Completely dissolved | 7.17 mg per ml ‘as is’ | 3.074 μmol per ml | Completely dissolved | 7.49 mg per ml ‘as is’ | 3.208 μmol per ml | 23.16 mg per ml ‘as is’ | 9.923 μmol per ml | Completely dissolved | 25.86 mg per ml ‘as is’ | Commute (solubility on preparation) [2]: Completely dissolved; Solubility after 24 Hours [2]: Completely dissolved; Comments (solubility on preparation) [5]: Completely dissolved; Solubility after 24 Hours [5]: Completely dissolved; Comments (solubility on preparation) [6]: Completely dissolved; Solubility after 24 Hours [6]: Completely dissolved; Solubility [μmol per ml] [7]: 11.080 μmol per ml; Solubility after 24 Hours [7]: Completely dissolved; solubility [8]: ≥ 18700 µg/mL; solubility [9]: ≥ 19100 µg/mL; solubility [10]: ≥ 6220 µg/mL; solubility [11]: ≥ 6490 µg/mL; solubility [12]: ≥ 20100 µg/mL; solubility [13]: ≥ 22400 µg/mL; solubility [14]: ≥ 21600 µg/mL |
| ETLLRAVESYLLAHSDAY [Bir09] | Completely dissolved• | 0.92 mg per ml ‘as is’ | 0.379 μmol per ml | Completely dissolved• | 0.35 mg per ml ‘as is’ | 0.143 μmol per ml | Completely dissolved | 1.52 mg per ml ‘as is’ | 0.627 μmol per ml | Completely dissolved | Undissolved in 1.5 mL• | 0.37 mg per ml ‘as is’ | 0.153 μmol per ml | Undissolved | 0.36 mg per ml ‘as is’ | 0.148 μmol per ml | 0.37 mg per ml ‘as is’ | 0.154 μmol per ml | Completely dissolved | 1.03 mg per ml ‘as is’ | Solubility [mg per ml] [4]: 0.314 mg per ml; Solubility [μmol per ml] [7]: 0.426 μmol per ml; Solubility after 24 Hours [7]: completely dissolved; solubility [8]: ≥ 293 µg/mL; solubility [9]: ≥ 1290 µg/mL; solubility [11]: ≥ 303 µg/mL; solubility [12]: ≥ 315 µg/mL; solubility [13]: ≥ 875 µg/mL; solubility [14]: ≥ 777 µg/mL |
